This note sets out measurements from patent US20250161307A1, “PYRAZOLOPYRIMIDINES AS MODULATORS OF SPERMINE OXIDASE” (Janssen Pharmaceutica NV, priority 2022, published 2025).

Each structure is given as a SMILES string.

One experiment has as its target SMOX (Homo sapiens (Human), UniProt Q9NWM0). The experiment in a line: Human SMOX assay (HyPerBlu chemiluminescent detection of hydrogen peroxide). To be noted: 2.5 nM full length hSMOX, spermine substrate, 1 h at room temperature, luminescence read; read-out: SMOx_IC50. The class given is biochemical. In outline:
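Full-length N-His human SMOX (2.5 nM, E. coli-expressed) was incubated 1 h at room temperature with 30 µM spermine, 11-point compound dilutions and 1.25% DMSO in pH 7.4 HEPES/NaCl/EGTA buffer. H2O2 was detected by HyPerBlu chemiluminescence after 30 min, and IC50 came from dose–response fits.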

The next experiment deals with hPAOX (Homo sapiens (Human), UniProt Q6QHF9). The experiment in a line: Human PAOX assay (HyPerBlu chemiluminescent detection of hydrogen peroxide). Type of experiment: biochemical. As to conditions: 60 pM recombinant PAOX, 20 μM N-acetylspermine substrate. In outline:
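His-tagged recombinant PAOX expressed in sf9 insect cells was used at 60 pM, with 20 μM N-acetylspermine as substrate. Hydrogen peroxide formed by the reaction was detected by chemiluminescence from a boronate probe (HyPerBlu). Inhibition appears as lower luminescence.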

Sequence of SMOX (Q9NWM0 whole entry): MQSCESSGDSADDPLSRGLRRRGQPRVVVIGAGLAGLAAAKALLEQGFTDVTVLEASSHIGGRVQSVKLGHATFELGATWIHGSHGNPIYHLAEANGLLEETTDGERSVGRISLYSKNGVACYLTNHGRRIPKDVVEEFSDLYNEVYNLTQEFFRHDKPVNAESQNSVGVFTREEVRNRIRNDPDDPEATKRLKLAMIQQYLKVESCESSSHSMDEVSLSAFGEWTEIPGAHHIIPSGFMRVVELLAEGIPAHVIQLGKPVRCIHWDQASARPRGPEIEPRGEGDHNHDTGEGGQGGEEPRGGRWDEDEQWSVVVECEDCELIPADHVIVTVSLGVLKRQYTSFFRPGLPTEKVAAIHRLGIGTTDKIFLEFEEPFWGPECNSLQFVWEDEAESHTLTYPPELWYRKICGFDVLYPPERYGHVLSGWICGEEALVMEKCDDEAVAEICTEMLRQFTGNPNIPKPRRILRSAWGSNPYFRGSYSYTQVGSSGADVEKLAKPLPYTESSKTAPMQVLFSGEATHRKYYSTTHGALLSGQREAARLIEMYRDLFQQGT
Sequence of hPAOX (Q6QHF9 whole entry): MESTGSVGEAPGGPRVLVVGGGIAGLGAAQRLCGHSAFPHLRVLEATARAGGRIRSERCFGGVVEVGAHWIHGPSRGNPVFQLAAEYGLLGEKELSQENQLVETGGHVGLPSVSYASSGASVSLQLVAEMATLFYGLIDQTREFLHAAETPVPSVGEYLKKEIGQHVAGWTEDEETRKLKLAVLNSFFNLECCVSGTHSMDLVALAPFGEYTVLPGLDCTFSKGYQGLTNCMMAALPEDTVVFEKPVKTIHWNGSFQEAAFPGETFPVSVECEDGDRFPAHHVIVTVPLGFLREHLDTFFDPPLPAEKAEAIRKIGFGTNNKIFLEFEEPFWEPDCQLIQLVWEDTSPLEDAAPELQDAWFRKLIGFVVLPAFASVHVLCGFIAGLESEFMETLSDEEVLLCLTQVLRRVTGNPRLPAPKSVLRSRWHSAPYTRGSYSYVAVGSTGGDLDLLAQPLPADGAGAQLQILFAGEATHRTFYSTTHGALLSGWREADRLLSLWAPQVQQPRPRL

On to `CC(=O)Nc1ccc(-c2cc(-c3ccccc3)nc3cc(C(=O)NCCCn4ccnc4)nn23)cc1` [Example 95, N-(3-(1H-imidazol-1-yl)propyl)-7-(4-acetamidophenyl)-5-phenylpyrazolo[1,5-a]pyrimidine-2-carboxamide], for which the results for the IC50 at SMOX and at hPAOX were over 31.2 µM and 2.07 µM, respectively.
For the compound `O=C(NCCCn1ccnc1)c1cc2nc(-c3ccccc3)cc(-c3cccnc3)n2n1` [Example 96, N-(3-(1H-imidazol-1-yl)propyl)-5-phenyl-7-(pyridin-3-yl)pyrazolo[1,5-a]pyrimidine-2-carboxamide], the IC50 at SMOX stood at 1.25 µM; at hPAOX, 6.91 µM.
For the compound `O=C(NCCCn1ccnc1)c1cc2nc(-c3ccccc3)cc(-c3ccncc3)n2n1` [Example 97, N-(3-(1H-imidazol-1-yl)propyl)-5-phenyl-7-(pyridin-4-yl)pyrazolo[1,5-a]pyrimidine-2-carboxamide], the IC50 on SMOX was 4.57 µM; at hPAOX, 3.61 µM.
As to `CN1CC(NC(=O)c2cc3nc(N4CCCC4)cc(-c4ccccc4)n3n2)C1` [Example 98, N-(1-methylazetidin-3-yl)-7-phenyl-5-(pyrrolidin-1-yl)pyrazolo[1,5-a]pyrimidine-2-carboxamide], the results for the IC50 at SMOX and at hPAOX were 4.59 µM and over 31.2 µM, respectively.
Consider `CN1CC(NC(=O)c2cc3nc(N4CCCCC4)cc(-c4ccccc4)n3n2)C1` [Example 99, N-(1-methylazetidin-3-yl)-7-phenyl-5-(piperidin-1-yl)pyrazolo[1,5-a]pyrimidine-2-carboxamide], for which the results for the IC50 on SMOX and at hPAOX were 7.71 µM and 7.08 µM, respectively.
As to `CN1CC(NC(=O)c2cc3nc(N4CCC4)cc(-c4ccccc4)n3n2)C1` [Example 100, 5-(azetidin-1-yl)-N-(1-methylazetidin-3-yl)-7-phenylpyrazolo[1,5-a]pyrimidine-2-carboxamide], the IC50 at SMOX was 4.01 µM; at hPAOX it was over 31.2 µM.
`O=C(NCCCn1ccnc1)c1cc2nc(-c3ccc(C(F)(F)F)cc3)cc(-c3ccccc3)n2n1` [Example 101, N-(3-(1H-imidazol-1-yl)propyl)-7-phenyl-5-(4-(trifluoromethyl)phenyl)pyrazolo[1,5-a]pyrimidine-2-carboxamide]: the values for the IC50 on SMOX and on hPAOX were 0.072 µM and 0.181 µM, respectively.
For the compound `CN1CC(NC(=O)c2cc3nc(-c4ccccn4)cc(-c4ccccc4)n3n2)C1` [Example 102, N-(1-methylazetidin-3-yl)-7-phenyl-5-(pyridin-2-yl)pyrazolo[1,5-a]pyrimidine-2-carboxamide], the IC50 at SMOX was 1.55 µM; at hPAOX, 10 µM.
Take `CN1CC(NC(=O)c2cc3nc(-c4ccccc4C(F)(F)F)cc(-c4ccccc4)n3n2)C1` [Example 103, N-(1-methylazetidin-3-yl)-7-phenyl-5-(2-(trifluoromethyl)phenyl)pyrazolo[1,5-a]pyrimidine-2-carboxamide]: the IC50 at SMOX came out at 3.12 µM; at hPAOX, 0.547 µM.
In the case of `CN1CC(NC(=O)c2cc3nc(-c4ccccc4F)cc(-c4ccccc4)n3n2)C1` [Example 104, 5-(2-fluorophenyl)-N-(1-methylazetidin-3-yl)-7-phenylpyrazolo[1,5-a]pyrimidine-2-carboxamide], the results for the IC50 at SMOX and at hPAOX were 1.29 µM and 1.4 µM, respectively.
On the same counts, the results for `CN1CC(NC(=O)c2cc3nc(-c4cccc(F)c4)cc(-c4ccccc4)n3n2)C1` [Example 105, 5-(3-fluorophenyl)-N-(1-methylazetidin-3-yl)-7-phenylpyrazolo[1,5-a]pyrimidine-2-carboxamide] are 0.114 µM and 0.666 µM.
Turning to `CN1CC(NC(=O)c2cc3nc(-c4ccc(F)cc4)cc(-c4ccccc4)n3n2)C1` [Example 106, 5-(4-fluorophenyl)-N-(1-methylazetidin-3-yl)-7-phenylpyrazolo[1,5-a]pyrimidine-2-carboxamide], the IC50 on SMOX amounted to 0.164 µM; on hPAOX, 0.485 µM.
